From US20150320773A1, “TREATMENT OF INFLAMMATION” (Vascular Biogenics Ltd., priority 2011, published 2015)

Experiments:
TLR4 = target: T1, TLR4 (Mus musculus, UniProt Q9QUK6)
T1 sequence (Q9QUK6 26-835): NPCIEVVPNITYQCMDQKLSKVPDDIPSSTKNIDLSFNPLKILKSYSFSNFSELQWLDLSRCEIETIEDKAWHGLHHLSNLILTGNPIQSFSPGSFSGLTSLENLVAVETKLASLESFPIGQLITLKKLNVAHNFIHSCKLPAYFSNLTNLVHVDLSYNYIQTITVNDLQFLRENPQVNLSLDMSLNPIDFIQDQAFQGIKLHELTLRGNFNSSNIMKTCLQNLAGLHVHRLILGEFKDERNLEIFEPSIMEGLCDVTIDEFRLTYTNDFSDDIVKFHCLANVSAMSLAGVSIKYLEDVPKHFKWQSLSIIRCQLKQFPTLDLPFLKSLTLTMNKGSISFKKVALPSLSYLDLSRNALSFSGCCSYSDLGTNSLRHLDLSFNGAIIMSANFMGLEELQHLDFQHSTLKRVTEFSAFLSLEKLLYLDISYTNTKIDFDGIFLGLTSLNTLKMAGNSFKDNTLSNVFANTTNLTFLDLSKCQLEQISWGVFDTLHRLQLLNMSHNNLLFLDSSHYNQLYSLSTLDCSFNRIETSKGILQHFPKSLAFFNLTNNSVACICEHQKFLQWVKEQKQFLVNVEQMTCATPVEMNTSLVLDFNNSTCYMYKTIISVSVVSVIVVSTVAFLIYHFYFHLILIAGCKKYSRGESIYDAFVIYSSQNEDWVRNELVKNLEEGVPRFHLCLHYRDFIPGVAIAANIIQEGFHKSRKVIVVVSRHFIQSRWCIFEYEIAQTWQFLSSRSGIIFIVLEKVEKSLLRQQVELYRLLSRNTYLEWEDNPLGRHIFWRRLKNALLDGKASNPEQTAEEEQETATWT
T1 sequence (Q9JHF9 19-160 partner): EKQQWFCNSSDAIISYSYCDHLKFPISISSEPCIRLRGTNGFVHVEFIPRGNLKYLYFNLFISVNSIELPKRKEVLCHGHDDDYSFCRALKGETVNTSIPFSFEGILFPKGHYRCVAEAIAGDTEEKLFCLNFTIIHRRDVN
Description: Cells were washed and re-suspended in lysis buffer containing 1:100 dithiothreitol (DTT) (Bio-Lab), and phosphatase and protease inhibitors (Thermo Scientific). Samples were loaded on a precasted Criterion TGX gel (BIO-RAD, UK) and transferred onto nitrocellulose membrane. Blots were blocked with 5% milk or bovine serum albumin (BSA) in TBST (Tris buffer saline with TWEEN 20) for 1 hour, followed by incubation with primary and secondary antibodies. Membranes were developed using the ECL kit (Thermo Scientific).
Toll-like receptors were activated in mouse BMDCs (bone marrow dendritic cells) by specific agonists, and the effect of receptor activation was determined via Western blot for phosphorylation of p38 MAP kinase, which is downstream of TLRs.

patients = assay: Vascular inflammation in patients (statin therapy); type: in vivo, human; conditions: in some instances
Description: In some examples according to any one of the embodiments of Methods 1a, 1b, 2, and 3 described herein, the vascular inflammation is measured using positron emission computed tomography (PET/CT) imaging quantifying 18-fluorodeoxyglucose (18-FDG) uptake as a target to background ratio (TBR), e.g., as described herein, or in Example 8 of WO2011/083465.

[1] = Plasma concentration of VB-201 (Liquid Chromatography-Tandem Mass Spectrometry); type: in vivo, mouse; conditions: oral
Description: In this model, injection of thioglycollate to the peritoneal cavity induces a “sterile” inflammatory response recruiting peripheral monocytes to the peritoneum, where they differentiate into macrophages (Li, Y. M., et al., J. Immunol. Methods. 1997; 201:183-188). […] Upon sacrifice, the number and identity of the cells accumulating in the peritoneum was determined by FACS, and plasma samples were taken for quantification by Liquid Chromatography-Tandem Mass Spectrometry. Three days after thioglycollate injection 95% of the cells in the peritoneum were macrophages (F4/80 positive, GR-1 negative cells) (FIG. 26B).

granulocytes = assay: Phagocytosis assay (whole blood), granulocytes; type: cell-based, human; conditions: VB-201 doses of 5 or 10 µg/ml
Description: Phagocytosis assays were conducted using pHrodo™ Phagocytosis Particle Labeling Kit (Invitrogen) according to the manufacturer protocol. […] Then, pHrodo dye-labeled E. coli bacteria were mixed with the treated blood samples, in 20:1 ratio of pHrodo™ particles to phagocytosing cells and incubated for additional 15 minutes. Each sample was analyzed both at 4° C. (no phagocytosis, negative control) and 37° C. Following incubation, red blood cells were removed by lysis and the samples were washed 3 times with wash buffer. For gating on specific subpopulations, cells were labeled with anti-CD14-FITC (monocytes and granulocytes marker, BD Biosciences) and anti-CD66b-PerCP/Cy5.5 (granulocytes marker, BioLegend) antibodies. pHrodo fluorescence intensity was analyzed by FACS.
To this end, a phagocytosis assay was performed on whole blood from healthy donors, and the capacity of leukocyte subsets to phagocytose PE-labeled E. Coli particles was tested in presence or absence of VB-201. As a negative control, we used blood without bacterial particles, while a positive control included blood and labeled-bacterial particles incubated at 37° C. Cells were then stained with CD14 and CD66b antibodies to differentiate between monocytes and granulocytes and were analyzed by FACS.

human monocytes [2] = assay: ROS formation in human monocytes (DCF, FACS); type: cell-based; conditions: overnight; VB-201 10 μg/ml, PGPC 10 μg/ml, OxPAPC 100 μg/ml; relative to PBS
Description: Detection of ROS was performed through FACS quantification of the oxidation product dichlorodihydrofluorescein (DCF). Data are mean±SD from 3-4 experiments performed in duplicates. FIG. 23B is a histogram from a representative experiment showing DCF levels in treated cells.

THP-1 cells = assay: Trans-well chemotaxis assay of THP-1 cells; type: cell-based, human
Description: For chemo-attraction of monocytes, RANTES (100 ng/ml), MIP-1α (50 ng/ml) or MCP-1 (50 ng/ml) were dissolved in 0.5% fetal bovine serum(FBS)/RPMI-1640 medium and placed at the lower chamber of QCM™ 24-well migration assay plate (Corning-Costar; 5 μm pores). For chemo-attraction of CD4+ cells, 0.5% FBS/RPMI-1640 solution containing RANTES (100 ng/ml) and SDF-1α (50 ng/ml) was used, using the same plate setting. Migration assay was conducted by seeding 300,000 treated cells in the upper chamber, followed by incubation of 3-4 hours. Subsequently, the number of cells which migrated to the medium in the lower compartment was determined by FACS.
Data are mean f SD from 4 experiments in triplicates, normalized to untreated cells. **, p<0.001.

TLR5 = TLR5 (Homo sapiens, UniProt O60602); conditions: human monocytes; flagellin; 1.7, 8.5 or 17 μM
TLR5, sequence (O60602 21-858): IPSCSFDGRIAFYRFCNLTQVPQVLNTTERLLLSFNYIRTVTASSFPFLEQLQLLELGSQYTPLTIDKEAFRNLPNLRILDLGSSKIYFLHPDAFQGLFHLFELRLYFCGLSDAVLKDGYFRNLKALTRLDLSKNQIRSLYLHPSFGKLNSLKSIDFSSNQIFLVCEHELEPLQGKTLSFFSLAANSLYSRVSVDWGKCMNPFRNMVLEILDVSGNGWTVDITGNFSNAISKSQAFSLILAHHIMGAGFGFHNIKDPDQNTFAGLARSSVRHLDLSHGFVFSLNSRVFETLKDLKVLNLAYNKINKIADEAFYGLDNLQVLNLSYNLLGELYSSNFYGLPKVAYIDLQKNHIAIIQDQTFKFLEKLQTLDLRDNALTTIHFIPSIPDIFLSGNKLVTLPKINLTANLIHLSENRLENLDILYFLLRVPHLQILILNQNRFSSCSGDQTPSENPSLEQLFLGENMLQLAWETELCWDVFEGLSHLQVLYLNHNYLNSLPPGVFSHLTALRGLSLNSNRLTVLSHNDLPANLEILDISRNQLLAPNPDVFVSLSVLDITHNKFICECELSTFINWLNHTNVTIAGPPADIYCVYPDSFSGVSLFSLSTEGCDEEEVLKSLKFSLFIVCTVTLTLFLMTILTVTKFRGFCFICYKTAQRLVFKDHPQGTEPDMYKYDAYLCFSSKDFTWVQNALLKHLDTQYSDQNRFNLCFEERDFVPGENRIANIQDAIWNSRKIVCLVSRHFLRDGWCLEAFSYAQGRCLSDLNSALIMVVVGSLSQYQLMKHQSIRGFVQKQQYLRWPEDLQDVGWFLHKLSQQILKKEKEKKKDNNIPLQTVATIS

12-LO (12-lipoxygenase) = 12-LO (12-lipoxygenase) (Homo sapiens, UniProt P18054); conditions: concentrations of up to 10 μM; data not shown
12-LO (12-lipoxygenase), sequence (P18054 whole entry, species assumed): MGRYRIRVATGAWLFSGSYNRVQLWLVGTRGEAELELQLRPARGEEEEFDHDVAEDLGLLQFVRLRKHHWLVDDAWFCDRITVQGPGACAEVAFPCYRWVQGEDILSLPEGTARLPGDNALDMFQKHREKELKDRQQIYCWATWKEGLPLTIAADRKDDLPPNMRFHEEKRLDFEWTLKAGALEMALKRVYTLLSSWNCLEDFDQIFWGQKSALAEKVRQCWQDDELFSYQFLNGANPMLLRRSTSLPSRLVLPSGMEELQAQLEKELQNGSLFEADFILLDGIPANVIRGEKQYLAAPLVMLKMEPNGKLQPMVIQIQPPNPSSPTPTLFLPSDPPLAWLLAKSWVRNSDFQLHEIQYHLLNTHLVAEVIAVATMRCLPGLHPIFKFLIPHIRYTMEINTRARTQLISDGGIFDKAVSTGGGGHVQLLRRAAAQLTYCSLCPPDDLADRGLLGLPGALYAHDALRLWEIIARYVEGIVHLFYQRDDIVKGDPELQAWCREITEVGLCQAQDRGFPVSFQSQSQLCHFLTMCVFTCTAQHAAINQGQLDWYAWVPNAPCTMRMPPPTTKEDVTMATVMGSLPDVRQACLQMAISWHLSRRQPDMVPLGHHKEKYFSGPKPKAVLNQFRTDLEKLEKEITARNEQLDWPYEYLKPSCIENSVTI

[3] = target: TLR2:TLR1 dimer, TLR2:TLR6 dimer (Mus musculus, UniProt Q9QUN7); conditions: 1.7, 8.5 or 17 μM
TLR2:TLR1 dimer, TLR2:TLR6 dimer, sequence (Q9QUN7 25-784): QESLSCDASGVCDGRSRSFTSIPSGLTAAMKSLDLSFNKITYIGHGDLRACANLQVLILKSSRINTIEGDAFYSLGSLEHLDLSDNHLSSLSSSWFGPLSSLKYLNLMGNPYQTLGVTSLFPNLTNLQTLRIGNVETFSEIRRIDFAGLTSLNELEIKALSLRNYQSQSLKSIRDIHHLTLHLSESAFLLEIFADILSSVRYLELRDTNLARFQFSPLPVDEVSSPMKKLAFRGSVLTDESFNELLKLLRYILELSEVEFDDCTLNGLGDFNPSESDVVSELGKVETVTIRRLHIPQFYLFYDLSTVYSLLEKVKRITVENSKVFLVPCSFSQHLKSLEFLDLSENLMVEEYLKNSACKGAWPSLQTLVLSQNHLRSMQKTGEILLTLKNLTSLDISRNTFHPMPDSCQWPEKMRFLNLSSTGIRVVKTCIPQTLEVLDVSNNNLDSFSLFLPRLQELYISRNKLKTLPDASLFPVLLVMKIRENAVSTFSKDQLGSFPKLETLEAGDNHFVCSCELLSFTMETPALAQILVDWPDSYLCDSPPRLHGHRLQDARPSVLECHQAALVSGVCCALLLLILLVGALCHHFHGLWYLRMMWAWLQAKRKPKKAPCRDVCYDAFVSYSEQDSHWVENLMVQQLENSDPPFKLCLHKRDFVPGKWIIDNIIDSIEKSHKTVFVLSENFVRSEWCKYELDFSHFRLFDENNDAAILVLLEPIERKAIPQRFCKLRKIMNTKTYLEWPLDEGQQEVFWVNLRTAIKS

human monocytes [4] = assay: Cell viability assay (MTS) of human monocytes; type: cell-based; conditions: 16 hours, doses of 1-10 j±g/ml
chemokine receptors = assay: GPCR activation assay, agonist mode (calcium flux); type: cell-based; conditions: 12.5 μM VB-201; ChemiScreen stable cell lines
Description: Analyses were performed by Millipore GPCR Profiler Service, by measuring intracellular calcium signal in real time using FLIPR^TETRA device. […] Antagonist percentage inhibition was referenced to EC80 control wells for each tested GPCR.

[5] = test system: phosphorylation of Akt, MEK1/2, ERK1/2 and p38 in human monocytes; assay: Chemokine-induced signaling in human monocytes, Western blot
Description: Untreated cells were used as reference for MCP-1 activation. Following treatment, cells were washed twice, harvested with lysis buffer and analyzed by SDS-PAGE. […] Alpha Tubulin levels serve as loading control.

[6] = 5 μg/ml VB-201, MCP-1 and MCP-3-stimulated cells

CCCCCCCCCCCCCCCCOC[C@H](COP(=O)([O-])OCC[N+](C)(C)C)OCCCCC(=O)O [VB-201, (R)-1-hexadecyl-2-(4′-carboxyl)butyl-sn-glycero-3-phosphocholine]
LPS-induced signaling (TLR4; RAW 264.7 murine macrophages): inhibited LPS-induced signaling in a dose-dependent manner
p38 phosphorylation following activation of TLR4 (TLR4; mouse BMDCs, LPS, 1.7, 8.5 or 17 μM): inhibited p^38 phosphorylation in a dose-dependent manner
activation of p38, ERK1/2 and the NFκB pathway following activation of TLR4 (TLR4; mouse peritoneal macrophages, LPS, 1.7, 8.5 or 17 μM): inhibited activation of p38, ERK1/2 and the NFκB pathway in a dose-dependent manner
effect on vascular inflammation in patients undergoing statin therapy versus patients not being treated with statins (patients): slightly better
VB-201 in mice plasma ([1]; 0.4 mg/kg): 0.8 ± 0.3 µmol/L
VB-201 plasma level ([1]; 4 mg/kg): 8.5 ± 1.5 µmol/L
granulocyte phagocytosis (granulocytes): no VB-201 effect was seen
ROS formation in human monocytes (human monocytes [2]): no effect on ROS formation
effect of Wortmannin, Rapamycin and GW5074 on chemotaxis of THP-1 cells with added VB-201 (THP-1 cells; VB-201 8.5 μM): further enhanced
in vitro migration of THP-1 cells (THP-1 cells; pretreatment 30 minutes, 2 or 5 μg/ml): significantly inhibited in vitro migration of THP-1 cells in a dose-dependent manner
activation of p38, ERK1/2 and the NFκB pathway following TLR5 activation (TLR5): no apparent effect
inhibition of 12-LO (12-lipoxygenase) (12-LO (12-lipoxygenase)): No inhibition
p38 phosphorylation following activation of dimers of TLR2 ([3]; mouse BMDCs, Pam3CSK4, PGN): inhibited p^38 phosphorylation in a dose-dependent manner
activation of p38, ERK1/2 and the NFκB pathway following activation of TLR2:TLR1 dimer ([3]; mouse peritoneal macrophages, Pam3CSK4): inhibited activation of p38, ERK1/2 and the NFκB pathway in a dose-dependent manner
monocyte viability (human monocytes [4]): no effect on monocyte viability
activation relative to positive controls (agonist, Ca++ flux) (chemokine receptors): less than 5%
ERK1/2 phosphorylation in stimulated monocytes ([5]; 50 ng/ml RANTES): inhibited ERK1/2 phosphorylation
phosphorylation levels of ERK1/2 ([5]; 5 μg/ml VB-201, Fractalkine-stimulated cells): considerable reduction
phosphorylation levels of Akt [5, 6]: considerable reduction
phosphorylation levels of ERK1/2 [5, 6]: considerable reduction
phosphorylation levels of MEK1/2 [5, 6]: considerable reduction
phosphorylation levels of p38 [5, 6]: but not in phosphorylation levels of p38
ERK1/2 phosphorylation in monocytes pre-stimulated with MCP-1 overnight ([5]; 8.5 μM VB-201 for 2, 5 or 15 min, 10 ng/ml MCP-1, 16 hrs): reduction of ERK1/2 phosphorylation in starting at 5 min
